Results as given in ChEMBL document CHEMBL1201862, “PubChem BioAssay data set” (2004).
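Cultured in 96-well plates, cells were exposed to test compound for 48 hours across five concentrations. At the GI50, growth is halved.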 Activity calls are given as the source filed them. Rule as the data show it: active = GI50 up to about 1.1 µM and inactive = higher.

Legend:
Assay in all cases: growth of human tumour cells (NCI), 48 h
M14 = tested on: M14
SN12C = tested on: SN12C
IGROV-1 = tested on: IGROV-1
HCT-15 = tested on: HCT-15
HOP-62 = tested on: HOP-62
LOX IMVI = tested on: LOX IMVI
KM-20L2 = tested on: KM-20L2
SK-MEL-5 = tested on: SK-MEL-5
RXF 631 = tested on: RXF 631
Malme-3M = tested on: Malme-3M
OVCAR-5 = tested on: OVCAR-5
SF-268 = tested on: SF-268
EKVX = tested on: EKVX
SNB-75 = tested on: SNB-75
DLD-1 = tested on: DLD-1
UO-31 = tested on: UO-31
NCI-H460 = tested on: NCI-H460
M19-MEL = tested on: M19-MEL
UACC-62 = tested on: UACC-62
SK-OV-3 = tested on: SK-OV-3
786-0 = tested on: 786-0
DMS-114 = tested on: DMS-114
SK-MEL-28 = tested on: SK-MEL-28
HOP-92 = tested on: HOP-92
K562 = tested on: K562
CCRF-CEM = tested on: CCRF-CEM
SNB-19 = tested on: SNB-19
CAKI-1 = tested on: CAKI-1
KM12 = tested on: KM12
COLO 205 = tested on: COLO 205
LXFL 529 = tested on: LXFL 529
NCI-H23 = tested on: NCI-H23
SK-MEL-2 = tested on: SK-MEL-2
NCI-H522 = tested on: NCI-H522
HL-60 = tested on: HL-60
XF498 = tested on: XF498
TK-10 = tested on: TK-10
MOLT-4 = tested on: MOLT-4
SF-295 = tested on: SF-295
SNB-78 = tested on: SNB-78
A549 = tested on: A549
OVCAR-4 = tested on: OVCAR-4
UACC-257 = tested on: UACC-257
SW-620 = tested on: SW-620
OVCAR-3 = tested on: OVCAR-3
HCC 2998 = tested on: HCC 2998
OVCAR-8 = tested on: OVCAR-8
RXF 393 = tested on: RXF 393
RPMI-8226 = tested on: RPMI-8226
SF-539 = tested on: SF-539
DMS-273 = tested on: DMS-273
HCT-116 = tested on: HCT-116
HT-29 = tested on: HT-29
U-251 = tested on: U-251
NCI-H226 = tested on: NCI-H226
SR = tested on: SR
ACHN = tested on: ACHN
HOP-18 = tested on: HOP-18

**Q.** Which results are given for O=C(O)C1=C(Cl)c2ccccc2S1(=O)=O?
**A.** GI50 (M14): > 100 µM (inactive); GI50 (SN12C): > 100 µM (inactive); GI50 (IGROV-1): > 100 µM (inactive); GI50 (HCT-15): > 100 µM; GI50 (HOP-62): > 100 µM (inactive); GI50 (LOX IMVI): > 100 µM (inactive); GI50 (KM-20L2): > 100 µM (inactive); GI50 (SK-MEL-5): > 100 µM (inactive); GI50 (RXF 631): > 100 µM (inactive); GI50 (Malme-3M): > 100 µM (inactive); GI50 (OVCAR-5): > 100 µM (inactive); GI50 (SF-268): > 100 µM (inactive); GI50 (EKVX): > 100 µM (inactive); GI50 (SNB-75): > 100 µM (inactive); GI50 (DLD-1): > 100 µM (inactive); GI50 (UO-31): > 100 µM (inactive); GI50 (NCI-H460): > 100 µM (inactive); GI50 (M19-MEL): > 100 µM (inactive); GI50 (UACC-62): > 100 µM (inactive); GI50 (SK-OV-3): > 100 µM (inactive); GI50 (786-0): > 100 µM (inactive); GI50 (DMS-114): > 100 µM (inactive); GI50 (SK-MEL-28): > 100 µM (inactive); GI50 (HOP-92): > 100 µM (inactive); GI50 (K562): > 100 µM (inactive); GI50 (CCRF-CEM): > 100 µM (inactive); GI50 (SNB-19): > 100 µM (inactive); GI50 (CAKI-1): > 100 µM (inactive); GI50 (KM12): > 100 µM (inactive); GI50 (COLO 205): > 100 µM (inactive); GI50 (LXFL 529): > 100 µM (inactive); GI50 (NCI-H23): > 100 µM (inactive); GI50 (SK-MEL-2): > 100 µM (inactive); GI50 (NCI-H522): 19.8 µM (inactive); GI50 (HL-60): > 100 µM (inactive); GI50 (XF498): > 100 µM (inactive); GI50 (TK-10): > 100 µM (inactive); GI50 (MOLT-4): > 100 µM (inactive); GI50 (SF-295): > 100 µM (inactive); GI50 (SNB-78): > 100 µM (inactive); GI50 (A549): > 100 µM (inactive); GI50 (OVCAR-4): > 100 µM (inactive); GI50 (UACC-257): > 100 µM (inactive); GI50 (SW-620): > 100 µM (inactive); GI50 (OVCAR-3): > 10 µM (inactive); GI50 (HCC 2998): > 100 µM (inactive); GI50 (OVCAR-8): > 100 µM (inactive); GI50 (RXF 393): > 100 µM (inactive); GI50 (RPMI-8226): > 100 µM (inactive)

**Q.** How did the GI50 (M14) turn out when CC1=CP(=O)(OC(C)C)C=C(C)C1=C(Cl)Cl (stereo not given) was run?
**A.** Its GI50 is 59.6 µM (inactive).

**Q.** And the GI50 (SN12C)?
**A.** The GI50 was 36.1 µM (inactive).

**Q.** What about the GI50 (IGROV-1) of the same compound?
**A.** The GI50 was > 100 µM (inactive).

**Q.** What about the GI50 (HCT-15) of the same compound?
**A.** The GI50 was 46 µM.

**Q.** And the GI50 (HOP-62)?
**A.** Its GI50 is > 100 µM (inactive).

**Q.** What about the GI50 (LOX IMVI) of the same compound?
**A.** The GI50 was 57 µM (inactive).

**Q.** And the GI50 (KM-20L2)?
**A.** Its GI50 is 39.1 µM (inactive).

**Q.** What about the GI50 (SF-539) of the same compound?
**A.** Its GI50 is 84.1 µM (inactive).

**Q.** What about the GI50 (SK-MEL-5) of the same compound?
**A.** Its GI50 is 30.8 µM (inactive).

**Q.** And the GI50 (RXF 631)?
**A.** Its GI50 is 11.8 µM (inactive).

**Q.** What about the GI50 (Malme-3M) of the same compound?
**A.** Its GI50 is > 100 µM (inactive).

**Q.** And the GI50 (OVCAR-5)?
**A.** The GI50 was > 100 µM (inactive).

**Q.** What about the GI50 (DMS-273) of the same compound?
**A.** The GI50 was 44.7 µM (inactive).

**Q.** And the GI50 (SF-268)?
**A.** The GI50 was > 100 µM (inactive).

**Q.** And the GI50 (EKVX)?
**A.** The GI50 was > 100 µM (inactive).

**Q.** And the GI50 (HCT-116)?
**A.** The GI50 was 24.9 µM (inactive).

**Q.** And the GI50 (SNB-75)?
**A.** Its GI50 is > 100 µM (inactive).

**Q.** What about the GI50 (DLD-1) of the same compound?
**A.** The GI50 was > 100 µM (inactive).

**Q.** What about the GI50 (UO-31) of the same compound?
**A.** Its GI50 is 13.1 µM (inactive).

**Q.** And the GI50 (NCI-H460)?
**A.** The GI50 was 68.2 µM (inactive).

**Q.** What about the GI50 (M19-MEL) of the same compound?
**A.** Its GI50 is 38.4 µM (inactive).

**Q.** And the GI50 (UACC-62)?
**A.** The GI50 was 32.6 µM (inactive).

**Q.** And the GI50 (SK-OV-3)?
**A.** Its GI50 is 17.4 µM (inactive).

**Q.** What about the GI50 (786-0) of the same compound?
**A.** Its GI50 is > 100 µM (inactive).

**Q.** What about the GI50 (HT-29) of the same compound?
**A.** Its GI50 is 45.6 µM (inactive).

**Q.** What about the GI50 (DMS-114) of the same compound?
**A.** The GI50 was 50.1 µM (inactive).

**Q.** And the GI50 (SK-MEL-28)?
**A.** The GI50 was 63.5 µM (inactive).

**Q.** What about the GI50 (HOP-92) of the same compound?
**A.** The GI50 was 16.9 µM (inactive).

**Q.** And the GI50 (U-251)?
**A.** Its GI50 is 35.7 µM (inactive).

**Q.** And the GI50 (NCI-H226)?
**A.** Its GI50 is 26.2 µM (inactive).

**Q.** What about the GI50 (K562) of the same compound?
**A.** The GI50 was 42 µM (inactive).

**Q.** And the GI50 (CCRF-CEM)?
**A.** Its GI50 is 54 µM (inactive).

**Q.** And the GI50 (SNB-19)?
**A.** Its GI50 is > 100 µM (inactive).

**Q.** And the GI50 (KM12)?
**A.** Its GI50 is 22.5 µM (inactive).

**Q.** And the GI50 (COLO 205)?
**A.** Its GI50 is 18.2 µM (inactive).

**Q.** What about the GI50 (LXFL 529) of the same compound?
**A.** Its GI50 is 30.7 µM (inactive).

**Q.** And the GI50 (NCI-H23)?
**A.** The GI50 was 52.7 µM (inactive).

**Q.** And the GI50 (SK-MEL-2)?
**A.** The GI50 was 20.3 µM (inactive).

**Q.** And the GI50 (NCI-H522)?
**A.** The GI50 was 2.52 µM (inactive).

**Q.** And the GI50 (SR)?
**A.** Its GI50 is 35.5 µM (inactive).

**Q.** What about the GI50 (HL-60) of the same compound?
**A.** The GI50 was 34.9 µM (inactive).

**Q.** What about the GI50 (ACHN) of the same compound?
**A.** The GI50 was 47.1 µM (inactive).

**Q.** What about the GI50 (XF498) of the same compound?
**A.** Its GI50 is > 100 µM (inactive).

**Q.** And the GI50 (TK-10)?
**A.** Its GI50 is > 100 µM (inactive).

**Q.** And the GI50 (MOLT-4)?
**A.** Its GI50 is 57.4 µM (inactive).

**Q.** What about the GI50 (SF-295) of the same compound?
**A.** Its GI50 is 45.2 µM (inactive).

**Q.** What about the GI50 (A549) of the same compound?
**A.** Its GI50 is 26.4 µM (inactive).

**Q.** And the GI50 (OVCAR-4)?
**A.** Its GI50 is > 100 µM (inactive).

**Q.** What about the GI50 (UACC-257) of the same compound?
**A.** Its GI50 is 32.2 µM (inactive).

**Q.** What about the GI50 (SW-620) of the same compound?
**A.** Its GI50 is 44 µM (inactive).

**Q.** And the GI50 (OVCAR-3)?
**A.** Its GI50 is > 100 µM (inactive).

**Q.** What about the GI50 (HCC 2998) of the same compound?
**A.** The GI50 was > 100 µM (inactive).

**Q.** What about the GI50 (OVCAR-8) of the same compound?
**A.** The GI50 was 68.7 µM (inactive).

**Q.** And the GI50 (HOP-18)?
**A.** The GI50 was > 100 µM (inactive).

**Q.** What about the GI50 (RXF 393) of the same compound?
**A.** Its GI50 is 66.2 µM (inactive).

**Q.** What about the GI50 (RPMI-8226) of the same compound?
**A.** The GI50 was 32.7 µM (inactive).
